Test system: QgIspS1-like (ΔTP-QgIspS1-like-6×His)
Assay: GC-MS
Format: biochemical, Quercus glauca
Conditions: 20 mM MgCl2, 37 °C, 30 min; from formation of the main product trans-β-ocimene

- Km: 180 ± 40 µM
SMILES: CC(C)=CCC/C(C)=C/COP(=O)(O)OP(=O)(O)O [GPP]
